Results reported in the supplement of paper PMC10627819.

Tests used:
S. aureus DSM 20231 [1] = experiment: fitness (endpoint OD595 vs no drug) (fraction); higher = more growth
Procedure, shortened: (§1)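 Bacterial fitness was scored as optical density at the stationary-phase transition relative to the robust mean of no-drug control wells. Scores are capped at 1. The growth data were OD595 readings every 30 min for 14 h at 37 °C, background-subtracted against the first reading, from 384-well plates inoculated at OD595 0.01 in TSB, LB Lennox or CY.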

S. aureus Newman [2] = experiment: as above
Procedure, shortened: as §1

B. subtilis 168 = experiment: Bliss interaction score (quartile over a dose matrix) (fitness difference); higher = more antagonism (negative = synergy)
Procedure, shortened: (§2)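 The Bliss score takes observed fitness and subtracts the expected fitness, calculated as a product of single-drug fitness values. Those single-drug values were inferred from the combination data. Fitness is OD595 at entry into stationary phase divided by the plate's robust no-drug mean, capped at 1, and the score is summarised by quartiles across technical, biological and donor/recipient replicates.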

S. aureus DSM 20231 [3] = experiment: as above
Procedure, shortened: as §2

S. aureus Newman [4] = experiment: as above
Procedure, shortened: as §2

S. pneumoniae D39V [5] = experiment: as above
Procedure, shortened: as §2

S. pneumoniae D39V [6] = experiment: fitness (endpoint OD595 vs no drug) (fraction); higher = more growth
Procedure, shortened: as §1
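Throughout, for Bliss interaction score (quartile over a dose matrix): first quartile when negative (synergy) and third quartile when positive (antagonism).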
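Throughout, for fitness (endpoint OD595 vs no drug): OD595 on entry to stationary phase over no-drug wells; at most 1.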

Cc1cc(NS(=O)(=O)c2ccc(N)cc2)no1 [Sulfamethoxazol] + CCCCCCCCCC(=O)N[C@@H]1[C@H]([C@@H]([C@H](O[C@H]1OC2=C3C=C4C=C2OC5=C(C=C(C=C5)[C@H]([C@H]6C(=O)N[C@@H](C7=C(C(=CC(=C7)O)OC8[C@H]([C@H]([C@@H]([C@H](O8)CO)O)O)O)C9=C(C=CC(=C9)[C@H](C(=O)N6)NC(=O)[C@@H]4NC(=O)[C@@H]1C2=CC(=CC(=C2)OC2=C(C=CC(=C2)[C@H](C(=O)N[C@H](CC2=CC(=C(O3)C=C2)Cl)C(=O)N1)N)O)O)O)C(=O)O)O[C@H]1[C@@H]([C@H]([C@@H]([C@H](O1)CO)O)O)NC(=O)C)Cl)CO)O)O [Teicoplanin]
fitness, main component drawn
Conditions	first compound 1 µg/mL	first compound 2 µg/mL	first compound 4 µg/mL
S. aureus DSM 20231 [1], partner 0.1562 µg/mL	0.941	≥ 1	0.965
S. aureus DSM 20231 [1], partner 0.3125 µg/mL	≥ 1	≥ 1	0.991
S. aureus DSM 20231 [1], partner 0.625 µg/mL	≥ 1	≥ 1	≥ 1
S. aureus Newman [2], partner 0.1562 µg/mL	≥ 1	≥ 1	≥ 1
S. aureus Newman [2], partner 0.3125 µg/mL	≥ 1	0.995	0.984
S. aureus Newman [2], partner 0.625 µg/mL	≥ 1	≥ 1	0.862

fitness, S. aureus Newman [2], one replicate, main component drawn
Conditions	partner 0.1562 µg/mL	partner 0.3125 µg/mL	partner 0.62 µg/mL	partner 0.625 µg/mL	partner 1.24 µg/mL	partner 2.48 µg/mL
first compound 1 µg/mL	–	–	0.805	–	0.726	0.397
first compound 2 µg/mL	–	–	0.861	–	0.712	0.387
first compound 4 µg/mL	–	–	0.788	–	0.724	0.425
first compound 8 µg/mL	0.963	0.866	–	0.997	–	–

main component drawn
Conditions	Bliss interaction score
B. subtilis 168	0.0811
S. aureus DSM 20231 [3]	0.0373
S. aureus Newman [4]	0.0326
S. pneumoniae D39V [5]	-0.0733

Cn1c2cccc(=O)c-2nc2ccccc21 [Pyocyanin] + CCCCCCCCCC(=O)N[C@@H]1[C@H]([C@@H]([C@H](O[C@H]1OC2=C3C=C4C=C2OC5=C(C=C(C=C5)[C@H]([C@H]6C(=O)N[C@@H](C7=C(C(=CC(=C7)O)OC8[C@H]([C@H]([C@@H]([C@H](O8)CO)O)O)O)C9=C(C=CC(=C9)[C@H](C(=O)N6)NC(=O)[C@@H]4NC(=O)[C@@H]1C2=CC(=CC(=C2)OC2=C(C=CC(=C2)[C@H](C(=O)N[C@H](CC2=CC(=C(O3)C=C2)Cl)C(=O)N1)N)O)O)O)C(=O)O)O[C@H]1[C@@H]([C@H]([C@@H]([C@H](O1)CO)O)O)NC(=O)C)Cl)CO)O)O [Teicoplanin]
fitness, main component drawn
Conditions	first compound 1.25 µg/mL	first compound 2.5 µg/mL	first compound 5 µg/mL
S. aureus DSM 20231 [1], partner 0.1562 µg/mL	0.99	0.906	0.619
S. aureus DSM 20231 [1], partner 0.3125 µg/mL	≥ 1	0.962	0.647
S. aureus DSM 20231 [1], partner 0.625 µg/mL	≥ 1	≥ 1	0.691
S. aureus Newman [2], partner 0.1562 µg/mL	0.958	0.805	0.372
S. aureus Newman [2], partner 0.3125 µg/mL	0.891	0.769	0.35
S. aureus Newman [2], partner 0.625 µg/mL	0.708	0.54	0.247

fitness, S. aureus Newman [2], one replicate, main component drawn
Conditions	first compound 1.25 µg/mL	first compound 2.5 µg/mL	first compound 5 µg/mL
partner 0.62 µg/mL	0.72	0.696	0.473
partner 1.24 µg/mL	0.698	0.558	0.238
partner 2.48 µg/mL	0.328	0.14	0.072

main component drawn
Conditions	Bliss interaction score
B. subtilis 168	-0.0698
S. aureus DSM 20231 [3]	0.0554
S. aureus Newman [4]	-0.114
S. pneumoniae D39V [5]	0.0954

CN(N=O)C(=O)N[C@@H](C=O)[C@@H](O)[C@H](O)[C@H](O)CO [Streptozotocin] + CN[C@H](CC(C)C)C(=O)N[C@H]1C(=O)N[C@@H](CC(N)=O)C(=O)N[C@H]2C(=O)N[C@H]3C(=O)N[C@H](C(=O)N[C@H](C(=O)O)c4cc(O)cc(O)c4-c4cc3ccc4O)[C@H](O)c3ccc(c(Cl)c3)Oc3cc2cc(c3O[C@@H]2O[C@H](CO)[C@@H](O)[C@H](O)[C@H]2O[C@H]2C[C@](C)(N)[C@H](O)[C@H](C)O2)Oc2ccc(cc2Cl)[C@H]1O [Vancomycin]
fitness
Conditions	first compound 0.15 µg/mL	first compound 0.3 µg/mL	first compound 0.6 µg/mL	first compound 1.2 µg/mL	first compound 2.4 µg/mL	first compound 4.8 µg/mL
S. aureus DSM 20231 [1], partner 0.1875 µg/mL	0.861	0.757	0.716	–	–	–
S. aureus DSM 20231 [1], partner 0.375 µg/mL	0.912	0.845	0.767	–	–	–
S. aureus DSM 20231 [1], partner 0.75 µg/mL	0.946	0.895	0.839	–	–	–
S. aureus Newman [2], partner 0.1875 µg/mL	0.861	0.792	0.585	–	–	–
S. aureus Newman [2], partner 0.375 µg/mL	0.82	0.758	0.515	–	–	–
S. aureus Newman [2], partner 0.75 µg/mL	0.885	0.763	0.539	–	–	–
S. pneumoniae D39V [6], partner 0.03125 µg/mL	–	–	–	0.998	0.99	0.999
S. pneumoniae D39V [6], partner 0.0625 µg/mL	–	–	–	0.911	0.881	0.932
S. pneumoniae D39V [6], partner 0.125 µg/mL	–	–	–	0.746	0.757	0.794

fitness, S. pneumoniae D39V [6], one replicate
Conditions	first compound 1.2 µg/mL	first compound 2.4 µg/mL	first compound 4.8 µg/mL
partner 0.25 µg/mL	0.655	0.639	0.536
partner 0.5 µg/mL	0.327	0.333	0.424

Conditions	Bliss interaction score
B. subtilis 168	-0.0175
S. aureus DSM 20231 [3]	0.0534
S. aureus Newman [4]	-0.0371
S. pneumoniae D39V [5]	0.0398
